Assays:
Androgen receptor [1] = target: T1, Androgen receptor (Homo sapiens, UniProt P10275)
T1 sequence (P10275 whole entry): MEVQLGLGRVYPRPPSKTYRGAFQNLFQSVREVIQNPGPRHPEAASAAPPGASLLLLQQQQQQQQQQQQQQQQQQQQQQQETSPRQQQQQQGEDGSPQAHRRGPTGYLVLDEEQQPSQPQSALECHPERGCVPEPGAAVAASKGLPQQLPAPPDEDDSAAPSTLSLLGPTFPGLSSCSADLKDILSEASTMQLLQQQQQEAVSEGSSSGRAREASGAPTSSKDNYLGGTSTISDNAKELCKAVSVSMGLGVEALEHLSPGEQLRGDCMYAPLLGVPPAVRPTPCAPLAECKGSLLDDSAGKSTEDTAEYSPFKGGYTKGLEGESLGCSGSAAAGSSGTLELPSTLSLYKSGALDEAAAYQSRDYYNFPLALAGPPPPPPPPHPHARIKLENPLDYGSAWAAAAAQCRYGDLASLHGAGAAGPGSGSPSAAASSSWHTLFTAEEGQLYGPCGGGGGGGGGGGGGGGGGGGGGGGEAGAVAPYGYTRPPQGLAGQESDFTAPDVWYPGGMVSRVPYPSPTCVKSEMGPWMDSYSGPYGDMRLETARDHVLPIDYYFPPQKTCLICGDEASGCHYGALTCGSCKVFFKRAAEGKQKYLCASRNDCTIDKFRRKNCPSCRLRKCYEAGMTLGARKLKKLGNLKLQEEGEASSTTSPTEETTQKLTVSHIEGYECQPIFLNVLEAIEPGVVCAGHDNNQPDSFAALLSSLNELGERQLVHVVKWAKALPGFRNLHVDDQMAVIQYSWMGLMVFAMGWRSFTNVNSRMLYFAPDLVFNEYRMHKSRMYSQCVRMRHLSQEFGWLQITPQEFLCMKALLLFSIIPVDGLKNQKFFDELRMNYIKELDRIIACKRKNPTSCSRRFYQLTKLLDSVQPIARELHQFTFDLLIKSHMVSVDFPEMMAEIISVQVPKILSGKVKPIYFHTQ
Description: Antagonistic activity (IC50) against human androgen receptor (hAR) in co-transfected CV-1 cell

Androgen receptor [2] = target: T1, Androgen receptor; assay: Binding affinity against hAR androgen receptor expressed in COS cells; assay type: cell-based
Androgen receptor [3] = target: T1, Androgen receptor; conditions: cv-1
Description: Agonistic activity against human androgen receptor (hAR) in co-transfected CV-1 cell

| SMILES | IC50 (Androgen receptor [1]) [nM] | Ki (Androgen receptor [2]) [nM] | EC50 (Androgen receptor [3]) |
| --- | --- | --- | --- |
| Cn1c(=O)cc(C(F)(F)F)c2cc3c(cc21)NCC3 | 56 | 61 | Not Active |
| CN1CCc2cc3c(C(F)(F)F)cc(=O)n(C)c3cc21 | 197 | 167 | Not Active |
| CC1(C)CCC[C@@H]2c3cc4c(C(F)(F)F)cc(O)nc4cc3N[C@@H]21 | 26 | 79 | Not Active |
